In test [1] the target is T1, S1P1 (Homo sapiens, UniProt P21453). The experiment in a line: DELFIA GTP-Eu Binding Assay (Assay 3b). On the set-up: purchased Lonza; host or cells: CHO cell membranes. The conditions noted are these: read-out: Assay 3b EC50. The format is biochemical. An outline of the steps:
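CHO membranes expressing human S1P1 (40 μg/mL) incubated 30 min at room temperature with compound (10-point, 3-fold, top 10 μM, 1% DMSO) in HEPES buffer with 2 μM GDP, MgCl2, NaCl, saponin, then 30 min with 10 nM GTP-Eu. Time-resolved fluorescence (340/615 nm) after washing; percent activity relative to 1 μM S1P, EC50 from curve fit.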
Target sequence in this assay (P21453 whole entry): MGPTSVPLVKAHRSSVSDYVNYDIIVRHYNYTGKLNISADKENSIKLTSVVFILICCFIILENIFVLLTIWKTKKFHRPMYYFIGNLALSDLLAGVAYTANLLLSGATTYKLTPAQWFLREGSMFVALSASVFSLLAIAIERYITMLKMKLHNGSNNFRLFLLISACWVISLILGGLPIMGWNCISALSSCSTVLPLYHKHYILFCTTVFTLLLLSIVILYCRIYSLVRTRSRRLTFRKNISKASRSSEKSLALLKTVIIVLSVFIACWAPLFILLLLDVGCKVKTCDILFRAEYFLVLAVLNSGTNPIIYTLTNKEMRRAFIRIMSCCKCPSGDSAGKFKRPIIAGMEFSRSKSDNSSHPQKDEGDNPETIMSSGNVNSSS

The target of test [2] is T1, S1P1. The experiment in a line: CNG cAMP Assay (Assay 1). Format: cell-based. On the set-up: host or cells: HEK293 cells expressing the CNG channel. The following applies: read-out: Assay 1 EC50. Put shortly:
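HEK293 cells expressing CNG channel and S1P1, membrane-potential dye loaded; compounds (top 10 μM, 10-point 3-fold, 1.8% DMSO) added with 25 μM Ro 20-1724, 500 nM NECA and 10 nM S1P for 90 min. T90/T0 fluorescence (Ex 350/Em 590 nm) normalised to NECA-alone vs DMSO; EC50 fitted.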
Target sequence in this assay (P21453 whole entry): as above

For test [3], the target named is T1, S1P1. The test can be described thus: Tango β-arrestin Recruitment Assay in HEK293 cells (Assay 2a). Format: cell-based. Also noted: linker with TEV protease (N1a) cleavage site (C); host or cells: HEK293, transiently transfected. The conditions noted are these: Tango β-arrestin Recruitment Assay, read-out: Assay 2a EC50. An outline of the steps:
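HEK293 cells transiently expressing S1P1 (TEV-cleavable tTA fusion) with β-arrestin2–TEV; compounds up to 10 μM, 10-point 3-fold, 1% DMSO, 30 min then 16–18 h at 37 °C. Luciferase luminescence normalised to 5 μM S1P as 100% and DMSO as background; EC50 from percent-activity curves.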
Target sequence in this assay (P21453 whole entry): as above
Target sequence in this assay (P32121 whole entry partner): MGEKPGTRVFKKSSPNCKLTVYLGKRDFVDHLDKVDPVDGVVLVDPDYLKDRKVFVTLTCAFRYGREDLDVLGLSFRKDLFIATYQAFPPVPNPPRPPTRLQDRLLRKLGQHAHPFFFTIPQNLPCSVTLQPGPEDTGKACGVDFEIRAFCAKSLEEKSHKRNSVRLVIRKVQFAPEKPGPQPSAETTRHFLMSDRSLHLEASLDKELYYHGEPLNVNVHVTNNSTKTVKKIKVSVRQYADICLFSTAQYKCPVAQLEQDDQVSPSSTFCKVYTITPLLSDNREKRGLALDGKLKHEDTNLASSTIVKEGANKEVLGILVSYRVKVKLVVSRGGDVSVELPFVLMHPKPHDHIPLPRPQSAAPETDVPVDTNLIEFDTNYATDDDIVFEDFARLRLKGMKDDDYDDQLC
On the technique in general: Arrestin recruitment assays detect the binding of arrestin to an activated receptor.

The text below walks through data of US20100160369A1, “S1P1 Agonists and Methods of Making And Using” (EXELIXIS, INC., priority 2008, published 2010).

`O=C(O)CCc1cc(Cl)c(-c2noc(-c3cn4cc(C(F)(F)F)cc(Cl)c4n3)n2)cc1F` [Entry 24]: the EC50 on S1P1 [1], at S1P1 [2] and on S1P1 [3] was at most 100 nM throughout.
For `O=C(O)CCc1cc(Cl)c(-c2noc(-c3cn4cc(C(F)(F)F)cc(Br)c4n3)n2)cc1F` [Entry 49], the figures for the EC50 on S1P1 [1], at S1P1 [2] and on S1P1 [3] were 100 to 500 nM, at most 100 nM and at most 100 nM, respectively.
On to `Cc1cc(CCC(=O)O)c(Cl)cc1-c1noc(-c2cn3cc(C(F)(F)F)cc(Cl)c3n2)n1` [Entry 56], for which the EC50 on S1P1 [1], at S1P1 [2] and on S1P1 [3] was at most 100 nM each time.
In the case of `C[C@H](CO)Oc1cc(Cl)c(-c2noc(-c3cn4cc(C(F)(F)F)cc(Cl)c4n3)n2)cc1F` [Example 93, (2R)-2-[(5-chloro-4-{5-[8-chloro-6-(trifluoromethyl)imidazo[1,2-a]pyridin-2-yl]-1,2,4-oxadiazol-3-yl}-2-fluorophenyl)oxy]propan-1-ol], the 50% effective concentration (EC50) at S1P1 [1], at S1P1 [2] and on S1P1 [3] was at most 100 nM each time.
Turning to `O=C(O)CCc1cc(Cl)c(-c2nnc(-c3cn4cc(C(F)(F)F)cc(Cl)c4n3)s2)cc1F` [Example 176, 3-(5-chloro-4-{5-[8-chloro-6-(trifluoromethyl)imidazo[1,2-a]pyridin-2-yl]-1,3,4-thiadiazol-2-yl}-2-fluorophenyl)propanoic acid], the EC50 at S1P1 [1], at S1P1 [2] and on S1P1 [3] was at most 100 nM throughout.
For `O=C(O)CCc1cc(Cl)c(-c2nnc(-c3cn4cc(C(F)(F)F)cc(Br)c4n3)s2)cc1F` [Example 177, 3-(4-{5-[8-bromo-6-(trifluoromethyl)imidazo[1,2-a]pyridin-2-yl]-1,3,4-thiadiazol-2-yl}-5-chloro-2-fluorophenyl)propanoic acid], the EC50 at S1P1 [1], on S1P1 [2] and at S1P1 [3] was at most 100 nM throughout.
As for `OCC(O)COc1cc(Cl)c(-c2noc(-c3cn4cc(C(F)(F)F)cc(Cl)c4n3)n2)cc1Cl` (stereo not drawn) [Example 208, 3-[(2,5-dichloro-4-{5-[8-chloro-6-(trifluoromethyl)imidazo[1,2-a]pyridin-2-yl]-1,2,4-oxadiazol-3-yl}phenyl)oxy]propane-1,2-diol], the EC50 – broadly, the midpoint of the concentration-response curve – at S1P1 [1] was 100 to 500 nM; on S1P1 [2] it was at most 100 nM; at S1P1 [3], at most 100 nM.
As to `O=C(O)CCc1cc(Cl)c(-c2nc(-c3cn4cc(C(F)(F)F)cc(Cl)c4n3)no2)cc1F` [Example 233, 3-(5-chloro-4-{3-[8-chloro-6-(trifluoromethyl)imidazo[1,2-a]pyridin-2-yl]-1,2,4-oxadiazol-5-yl}-2-fluorophenyl)propanoic acid], the EC50 is 100 to 500 nM on S1P1 [1], at most 100 nM on S1P1 [2] and at most 100 nM at S1P1 [3].
As to `O=C(O)CCc1cc(Cl)c(-c2noc(-c3cn4cc(C(F)(F)F)cc(Cl)c4n3)n2)cc1Cl` [Example 242, 3-(2,5-dichloro-4-{5-[8-chloro-6-(trifluoromethyl)imidazo[1,2-a]pyridin-2-yl]-1,2,4-oxadiazol-3-yl}phenyl)propanoic acid], the EC50 at S1P1 [1], on S1P1 [2] and on S1P1 [3] was at most 100 nM each time.
In the case of `OCCOc1cc(Cl)c(-c2noc(-c3cn4cc(C(F)(F)F)cc(Cl)c4n3)n2)cc1F` [Example 263, 2-[(5-chloro-4-{5-[8-chloro-6-(trifluoromethyl)imidazo[1,2-a]pyridin-2-yl]-1,2,4-oxadiazol-3-yl}-2-fluorophenyl)oxy]ethanol], the EC50 on S1P1 [1] was 100 to 500 nM; at S1P1 [2] it was at most 100 nM; on S1P1 [3], at most 100 nM.
Regarding `CC(C)Oc1cc(Cl)c2nc(-c3nc(-c4cc(F)c(CCC(=O)O)cc4Cl)no3)cn2c1` [Example 301, 3-[5-chloro-4-(5-{8-chloro-6-[(1-methylethyl)oxy]imidazo[1,2-a]pyridin-2-yl}-1,2,4-oxadiazol-3-yl)-2-fluorophenyl]propanoic acid], the EC50 at S1P1 [1], at S1P1 [2] and on S1P1 [3] was at most 100 nM throughout.
As for `O=C(O)CCc1cc(Cl)c(-c2noc(-c3cn4cc(I)cc(Cl)c4n3)n2)cc1F` [Example 302, 3-{5-chloro-4-[5-(8-chloro-6-iodoimidazo[1,2-a]pyridin-2-yl)-1,2,4-oxadiazol-3-yl]-2-fluorophenyl}propanoic acid], the concentration for a half-maximal effect (EC50) at S1P1 [1], at S1P1 [2] and on S1P1 [3] was at most 100 nM throughout.
